According to paper PMC8286840, “Identifying SARS-CoV-2 antiviral compounds by screening for small molecule inhibitors of Nsp3 papain-like protease” (Biochemical Journal, 2021):
Counter-ions that a name gives are not always drawn. Like-named read-outs stand apart in the source and are kept apart here.

How the values were obtained:
[1] = target: T1, SARS-CoV-2 PLpro (nsp3 1564–1878) (Severe acute respiratory syndrome coronavirus 2, UniProt P0DTD1); assay: biochemical; design: FRET-quenched peptide (Pro3) cleavage by PLpro, 10 min pre-incubation, slope over 20 min, normalised to no-compound control; settings: low concentration screen, read-out: % of control remaining
[2] = target: T1, SARS-CoV-2 PLpro (nsp3 1564–1878); assay: biochemical; design: FRET-quenched peptide (Pro3) cleavage by PLpro, 10 min pre-incubation, slope over 20 min, normalised to no-compound control; settings: high concentration screen, read-out: % of control remaining

Compound `CCC(C)(O)C(=O)O` (stereo not drawn) [2-Hydroxy-2-methylbutanoic acid] has a remaining activity at 1.25 µM ([1]; Well no.=6357) of 96.5% and a remaining activity at 3.75 µM ([2]; Well no.=6357) of 93.4%.

Work on `COc1cc(O)c(C(=O)/C=C/c2ccccc2)c(OC)c1` [Flavokawain B] yielded a remaining activity at 1.25 µM ([1]; Well no.=3685) of 98.5% and a remaining activity at 3.75 µM ([2]; Well no.=3685) of 100%.

`NCCCCNCCCN` [Spermidine] showed a remaining activity at 1.25 µM ([1]; Well no.=7069) of 107% and a remaining activity at 3.75 µM ([2]; Well no.=7069) of 105%.

`CC(C)[C@@H]1NC(=O)[C@H](C)OC(=O)[C@@H](C(C)C)NC(=O)[C@@H](C(C)C)OC(=O)[C@H](C(C)C)NC(=O)[C@H](C)OC(=O)[C@@H](C(C)C)NC(=O)[C@@H](C(C)C)OC(=O)[C@H](C(C)C)NC(=O)[C@H](C)OC(=O)[C@@H](C(C)C)NC(=O)[C@@H](C(C)C)OC1=O` [Valinomycin] gave a remaining activity at 1.25 µM ([1]; Well no.=3631) of 99.9% and a remaining activity at 3.75 µM ([2]; Well no.=3631) of 101%.

`C[C@@H]1O[C@@H](O[C@H]2C(=O)c3c(O)cc(O)cc3O[C@@H]2c2ccc(O)c(O)c2)[C@H](O)[C@H](O)[C@H]1O` [Astilbin] gave a remaining activity at 1.25 µM ([1]; Well no.=6924) of 114% and a remaining activity at 3.75 µM ([2]; Well no.=6924) of 106%.

Compound `COc1cc(C(=O)NCc2ccc(OCCN(C)C)cc2)cc(OC)c1OC` [Trimethobenzamide hydrochloride] has a remaining activity at 1.25 µM ([1]; Well no.=8493) of 90.1% and a remaining activity at 3.75 µM ([2]; Well no.=8493) of 91.3%.

For `CCN[C@@H]1C[C@H](N)[C@@H](O[C@H]2OC(CN)=CC[C@H]2N)[C@H](O)[C@H]1O[C@H]1OC[C@](C)(O)[C@H](NC)[C@H]1O` [Netilmicin Sulfate], the remaining activity at 1.25 µM ([1]; Well no.=4696) was 102% and the remaining activity at 3.75 µM ([2]; Well no.=4696) was 101%.

For `CCC(Sc1nnc2c(n1)[nH]c1ccccc12)C(=O)N1c2ccccc2Sc2ccccc21` (stereo not drawn) [Inauhzin], the remaining activity at 1.25 µM ([1]; Well no.=6158) was 100% and the remaining activity at 3.75 µM ([2]; Well no.=6158) was 91.7%.

For `CCc1cc2c(cc1N1CCC(N3CCOCC3)CC1)C(C)(C)c1[nH]c3cc(C#N)ccc3c1C2=O` [CH5424802], the remaining activity at 1.25 µM ([1]; Well no.=5077) was 104% and the remaining activity at 3.75 µM ([2]; Well no.=5077) was 104%.

`CCN1CCN(c2ccc(Nc3cc(N(C)C(=O)Nc4c(Cl)c(OC)cc(OC)c4Cl)ncn3)cc2)CC1` [BGJ398 (NVP-BGJ398)] showed a remaining activity at 1.25 µM ([1]; Well no.=5140) of 97% and a remaining activity at 3.75 µM ([2]; Well no.=5140) of 99.3%.

With `CCCCC/C=C\C/C=C\C/C=C\C/C=C\CCCC(N)=O` [Arachidonamide] the remaining activity at 1.25 µM ([1]; Well no.=4336) was 108% and the remaining activity at 3.75 µM ([2]; Well no.=4336) was 104%.

Compound `COc1ccc(NS(=O)(=O)c2ccc(N)cc2)nn1` [Sulfamethoxypyridazine] has a remaining activity at 1.25 µM ([1]; Well no.=7354) of 101%, a remaining activity at 1.25 µM ([1]; Well no.=8613) of 94.6% and a remaining activity at 3.75 µM ([2]; Well no.=7354) of 99.7%. For the same compound, the remaining activity at 3.75 µM ([2]; Well no.=8613) was 94.7%.

`C[C@H](Cc1cc2c(c(C(N)=O)c1)N(CCCO)CC2)NCCOc1ccccc1OCC(F)(F)F` [Silodosin] was tested, and the remaining activity at 1.25 µM ([1]; Well no.=6759) was 101% and the remaining activity at 3.75 µM ([2]; Well no.=6759) was 102%.

Compound `O=c1cc(-c2ccccc2)oc2cc(O)c(O)c(O)c12` [Baicalein] has a remaining activity at 1.25 µM ([1]; Well no.=3087) of 103%, a remaining activity at 1.25 µM ([1]; Well no.=3942) of 108% and a remaining activity at 3.75 µM ([2]; Well no.=3087) of 101%. The remaining activity at 3.75 µM ([2]; Well no.=3942) was 104%.

`CCn1cc(C(=O)O)c(=O)c2ccc(Cc3ccccc3)nc21` [Amfonelic acid] showed a remaining activity at 1.25 µM ([1]; Well no.=446) of 98.4% and a remaining activity at 3.75 µM ([2]; Well no.=446) of 98.5%.

For `COc1ccc(N2C(=O)/C(=C\c3ccc([N+](=O)[O-])s3)SC2=S)cc1` [CCF642], the remaining activity at 1.25 µM ([1]; Well no.=8774) was 93.3% and the remaining activity at 3.75 µM ([2]; Well no.=8774) was 93.7%.

For `Cc1cnc(Nc2ccc(N3CCN(C)CC3)cc2)nc1Nc1cccc(S(=O)(=O)NC(C)(C)C)c1` [TG101209], the remaining activity at 1.25 µM ([1]; Well no.=2805) was 94% and the remaining activity at 3.75 µM ([2]; Well no.=2805) was 96.7%.

Work on `Oc1cc2c(cc1O)CN(C(=S)NCCc1ccc(Cl)cc1)CCC2` [Capsazepine] yielded a remaining activity at 1.25 µM ([1]; Well no.=631) of 98.8% and a remaining activity at 3.75 µM ([2]; Well no.=631) of 99.5%.

`CCn1c(=O)c2c(nc(/C=C/c3ccc(OC)c(OC)c3)n2C)n(CC)c1=O` [Istradefylline (KW-6002)] gave a remaining activity at 1.25 µM ([1]; Well no.=5121) of 106% and a remaining activity at 3.75 µM ([2]; Well no.=5121) of 110%.

`CCCCOc1c(C(=O)c2c(F)cc(C)cc2F)c[nH]c2nncc1-2` [BMS-265246] gave a remaining activity at 1.25 µM ([1]; Well no.=5010) of 95.8% and a remaining activity at 3.75 µM ([2]; Well no.=5010) of 96.6%.

Work on `CC(C)Cc1ccc([C@@H](C)C(=O)NS(C)(=O)=O)cc1` [Reparixin] yielded a remaining activity at 1.25 µM ([1]; Well no.=7277) of 99.5%, a remaining activity at 1.25 µM ([1]; Well no.=8501) of 106% and a remaining activity at 3.75 µM ([2]; Well no.=7277) of 99.9%. The remaining activity at 3.75 µM ([2]; Well no.=8501) was 106%.

In the case of `CCN(C)C(=O)Oc1cccc([C@H](C)N(C)C)c1` [Rivastigmine], the remaining activity at 1.25 µM ([1]; Well no.=1722) is reported as 95.2% and the remaining activity at 3.75 µM ([2]; Well no.=1722) is reported as 96.3%.

For `Nc1nc2ccc(Cl)cc2n2c(-c3ccccc3)nnc12` [CP-66713], the remaining activity at 1.25 µM ([1]; Well no.=5624) was 96.6% and the remaining activity at 3.75 µM ([2]; Well no.=5624) was 96%.

`O=C(O)Cn1c2c(c3cc(F)ccc31)CN(C(=O)c1cccc3ccccc13)CC2` [Setipiprant] gave a remaining activity at 1.25 µM ([1]; Well no.=7707) of 99.9% and a remaining activity at 3.75 µM ([2]; Well no.=7707) of 103%.

`NC(=O)c1[nH]cnc1N` [5-Amino-3H-imidazole-4-Carboxamide] showed a remaining activity at 1.25 µM ([1]; Well no.=7449) of 103% and a remaining activity at 3.75 µM ([2]; Well no.=7449) of 104%.

With `CC(C)NCC(O)c1ccc(O)c(O)c1` (stereo not drawn) [Isoprenaline (hydrochloride)] the remaining activity at 1.25 µM ([1]; Well no.=6761) was 99.4% and the remaining activity at 3.75 µM ([2]; Well no.=6761) was 101%.

`CC[C@@H](C)Nc1cc(C(=O)N[C@H]2C[C@H]3CC[C@@H](C2)N3c2ccc(C(=O)C3CC3)cn2)c(C)cc1C(N)=O` [XL888] showed a remaining activity at 1.25 µM ([1]; Well no.=8982) of 90.5% and a remaining activity at 3.75 µM ([2]; Well no.=8982) of 93.8%.

Work on `CC(=O)S[C@@H]1CC2=CC(=O)CC[C@]2(C)[C@H]2CC[C@@]3(C)[C@@H](CC[C@@]34CCC(=O)O4)[C@H]12` [Spironolactone] yielded a remaining activity at 1.25 µM ([1]; Well no.=1266) of 97.8%, a remaining activity at 1.25 µM ([1]; Well no.=2253) of 93% and a remaining activity at 3.75 µM ([2]; Well no.=1266) of 93.5%. It also gave a remaining activity at 3.75 µM ([2]; Well no.=2253) of 82.7%.

`Cc1c(C(=O)NN2CCCCC2)nn(-c2ccc(Cl)cc2Cl)c1-c1ccc(Cl)cc1` [Rimonabant] gave a remaining activity at 1.25 µM ([1]; Well no.=8438) of 92.2% and a remaining activity at 3.75 µM ([2]; Well no.=8438) of 97%.

In the case of `CC(=O)c1c(C)c2cnc(Nc3ccc(N4CCNCC4)cn3)nc2n(C2CCCC2)c1=O` [PD 0332991 (Palbociclib) Isethionate], the remaining activity at 1.25 µM ([1]; Well no.=4882) is reported as 101% and the remaining activity at 3.75 µM ([2]; Well no.=4882) is reported as 101%.

For `Cn1c(=O)c2[nH]c(C3CCCC3)nc2n(C)c1=O` [8-Cyclopentyl-1,3-dimethylxanthine], the remaining activity at 1.25 µM ([1]; Well no.=723) was 98.4% and the remaining activity at 3.75 µM ([2]; Well no.=723) was 101%.

`COc1cc(NC(=O)CCN2CCC(OC(=O)Nc3ccccc3-c3ccccc3)CC2)c(Cl)cc1CNC[C@H](O)c1ccc(O)c2[nH]c(=O)ccc12` [Batefenterol] showed a remaining activity at 1.25 µM ([1]; Well no.=7045) of 106% and a remaining activity at 3.75 µM ([2]; Well no.=7045) of 109%.
